Assay results as given in patent US9169199B2, “Cycloalkyl guanidine F1F0-ATPase inhibitors and therapeutic uses thereof” (Lycera Corporation, priority 2010, dated 2015).
pEC50, pIC50: −log10 of the molar value.

Tests used:
[1] = target: T1, F1F0-ATPase (Bos taurus, UniProt P13621); assay: Inhibition of ATP synthesis by the F1F0-ATPase; format: biochemical
T1 construct: from tissue
Method: (§1) Compounds in Example 4 above were tested for activity against F1F0-ATPase by measuring ATP synthesis. In addition, the compounds were assessed for cytotoxicity in Ramos cells. Inhibition of ATP synthesis by the F1F0-ATPase and cytotoxicity in Ramos cells were measured according to the procedures described in K. M. Johnson et al. Chemistry & Biology 2005, 12, 485-496.

[2] = tested on: Ramos cells; assay: Cytotoxicity in Ramos cells; format: cell-based; details: Homo sapiens, read-out: Ramos cell EC50
Method: as §1

Row | SMILES | pIC50 [1] | pEC50 [2]
1 | CCOC(=O)N[C@H]1CC[C@H](N/C(=N\C(=O)c2ccc(F)c(F)c2)NCc2ccccc2C(F)(F)F)CC1 [Compound 50] | > 5.00 | > 5.00
2 | CCOC(=O)N[C@H]1CC[C@H](N/C(=N\C(=O)c2ccc(F)c(F)c2)NCc2cccc(C(F)(F)F)c2)CC1 [Compound 51] | > 5.00 | > 5.00
3 | CCOC(=O)N[C@H]1CC[C@H](N/C(=N\C(=O)c2ccc(F)c(F)c2)NCc2ccc(C(F)(F)F)cc2)CC1 [Compound 52] | > 5.00 | > 5.00
4 | CCOC(=O)N[C@H]1CC[C@H](N/C(=N\C(=O)c2ccc(F)c(F)c2)NCc2ccccc2F)CC1 [Compound 53] | > 5.00 | > 5.00
5 | CCOC(=O)N[C@H]1CC[C@H](N/C(=N\C(=O)c2ccc(F)c(F)c2)NCc2cccc(F)c2)CC1 [Compound 54] | > 5.00 | > 5.00
6 | CCOC(=O)N[C@H]1CC[C@H](N/C(=N\C(=O)c2ccc(F)c(F)c2)NCc2cc(F)ccc2F)CC1 [Compound 55] | > 5.00 | > 5.00
7 | CCOC(=O)N[C@H]1CC[C@H](N/C(=N\C(=O)c2ccc(F)c(F)c2)NCc2ccc(F)c(F)c2)CC1 [Compound 56] | > 5.00 | > 5.00
8 | CCOC(=O)N[C@H]1CC[C@H](N/C(=N\C(=O)c2ccc(F)c(F)c2)NCc2cccc(F)c2F)CC1 [Compound 57] | > 5.00 | > 5.00
9 | CCOC(=O)N[C@H]1CC[C@H](N/C(=N\C(=O)c2ccc(F)c(F)c2)NCc2ccc(F)cc2F)CC1 [Compound 58] | > 5.00 | > 5.00
10 | CCOC(=O)N[C@H]1CC[C@H](N/C(=N\C(=O)c2ccc(F)c(F)c2)NCc2cc(F)cc(F)c2)CC1 [Compound 59] | > 5.00 | > 5.00
11 | CCOC(=O)N[C@H]1CC[C@H](N/C(=N\C(=O)c2ccc(F)c(F)c2)NCc2ccc(F)cc2Cl)CC1 [Compound 60] | > 5.00 | > 5.00
12 | CCOC(=O)N[C@H]1CC[C@H](N/C(=N\C(=O)c2ccc(F)c(F)c2)NCc2ccc(F)c(Cl)c2)CC1 [Compound 61] | > 5.00 | > 5.00
13 | CCOC(=O)N[C@H]1CC[C@H](N/C(=N\C(=O)c2ccc(F)c(F)c2)NCc2ccc(Cl)c(F)c2)CC1 [Compound 62] | > 5.00 | > 5.00
14 | CCOC(=O)N[C@H]1CC[C@H](N/C(=N\C(=O)c2ccc(F)c(F)c2)NCc2ccc(Cl)cc2F)CC1 [Compound 63] | > 5.00 | > 5.00
15 | CCOC(=O)N[C@H]1CC[C@H](N/C(=N\C(=O)c2ccc(F)c(F)c2)Nc2ccccc2C2CC2)CC1 [Compound 66] | > 5.00 | > 5.00
16 | O=C(/N=C(/Nc1ccccc1C1CC1)N[C@H]1CC[C@H](Nc2ncccn2)CC1)c1ccc(F)c(F)c1 [Compound 67] | > 5.00 | < 5.00
17 | O=C(/N=C(/Nc1ccc(Cl)c(F)c1)N[C@H]1CC[C@H](O)CC1)c1ccc(C(F)(F)F)cc1 [Compound 68] | > 5.00 | > 5.00
18 | O=C(/N=C(/Nc1cccc(Cl)c1F)N[C@H]1CC[C@H](O)CC1)c1ccc(C(F)(F)F)cc1 [Compound 69] | > 5.00 | > 5.00
19 | O=C(Cc1ccc(Cl)cc1)/N=C(\Nc1cc(F)cc(Cl)c1)N[C@H]1CC[C@H](O)CC1 [Compound 71] | > 5.00 | < 5.00
20 | O=C(/N=C(/NCc1ccc(Cl)cc1F)N[C@H]1CC[C@H](Nc2ncccn2)CC1)c1ccc(F)c(F)c1 [Compound 72] | > 5.00 | > 5.00
21 | O=C(/N=C(/NCc1ccc(F)cc1Cl)N[C@H]1CC[C@H](Nc2ncccn2)CC1)c1ccc(F)c(F)c1 [Compound 73] | > 5.00 | > 5.00
22 | O=C(/N=C(/NCc1ccc(F)c(Cl)c1)N[C@H]1CC[C@H](Nc2ncccn2)CC1)c1ccc(F)c(F)c1 [Compound 74] | > 5.00 | > 5.00
23 | O=C(/N=C(/NCc1ccc(Cl)c(F)c1)N[C@H]1CC[C@H](Nc2ncccn2)CC1)c1ccc(F)c(F)c1 [Compound 75] | > 5.00 | > 5.00
24 | CCOC(=O)N[C@H]1CC[C@H](N/C(=N\C(=O)c2ccc(F)c(F)c2)NC2CCCCC2)CC1 [Compound 76] | > 5.00 | < 5.00
25 | CCOC(=O)N[C@H]1CC[C@H](N/C(=N\C(=O)c2ccc(F)c(F)c2)NC2CCC(C)CC2)CC1 (some centres unmarked) [Compound 77] | > 5.00 | > 5.00

Row | SMILES | pIC50 [1] | pEC50 [2]
26 | CC(C)(C)OC(=O)N[C@H]1CC[C@H](N/C(=N\C(=O)c2ccc(F)c(F)c2)Nc2cccc(Cl)c2)CC1 [Compound 78] | > 5.00 | > 5.00
27 | N[C@H]1CC[C@H](N/C(=N\C(=O)c2ccc(F)c(F)c2)Nc2cccc(Cl)c2)CC1 [Compound 79] | < 5.00 | > 5.00
28 | CCOC(=O)N[C@H]1CC[C@H](N/C(=N\C(=O)c2ccc(F)c(F)c2)Nc2cc(C(C)(C)C)on2)CC1 [Compound 80] | < 5.00 | < 5.00
29 | CCOC(=O)N[C@H]1CC[C@H](N/C(=N\C(=O)c2ccc(F)c(F)c2)Nc2ccc(F)c(Cl)c2)CC1 [Compound 81] | > 5.00 | > 5.00
30 | CCOC(=O)N[C@H]1CC[C@H](N/C(=N\C(=O)c2ccc(F)c(F)c2)Nc2cccc(Cl)c2F)CC1 [Compound 82] | > 5.00 | > 5.00
31 | O=C(/N=C(/Nc1ccc(F)c(Cl)c1)N[C@H]1CC[C@H](Nc2ncccn2)CC1)c1ccc(F)c(F)c1 [Compound 83] | > 5.00 | > 5.00
32 | O=C(/N=C(/Nc1cccc(Cl)c1F)N[C@H]1CC[C@H](Nc2ncccn2)CC1)c1ccc(F)c(F)c1 [Compound 84] | > 5.00 | < 5.00
33 | CCOC(=O)N[C@H]1CC[C@@H](N/C(=N\C(=O)c2ccc(F)c(F)c2)Nc2cc(F)cc(Cl)c2)CC1 [Compound 85] | > 5.00 | > 5.00
34 | CC1CCC(N/C(=N/C(=O)c2ccc(F)c(F)c2)N[C@H]2CC[C@H](Nc3ncccn3)CC2)CC1 (some centres unmarked) [Compound 86] | > 5.00 | > 5.00
35 | O=C(/N=C(/NC1CCCCC1)N[C@H]1CC[C@H](Nc2ncccn2)CC1)c1ccc(F)c(F)c1 [Compound 87] | > 5.00 | > 5.00
36 | O=C(/N=C(/Nc1cccc(Cl)c1)N[C@H]1CC[C@H](Nc2ccccn2)CC1)c1ccc(F)c(F)c1 [Compound 88] | > 5.00 | > 5.00
37 | CCNC(=O)[C@H]1CC[C@@H](N/C(=N\C(=O)c2ccc(F)c(F)c2)Nc2cc(F)cc(Cl)c2)CC1 [Compound 89] | > 5.00 | > 5.00
38 | O=C(/N=C(/NCc1ccccc1Cl)N[C@H]1CC[C@H](Nc2ncccn2)CC1)c1ccc(F)c(F)c1 [Compound 90] | > 5.00 | > 5.00
39 | O=C(/N=C(/NCc1ccc(Cl)cc1)N[C@H]1CC[C@H](Nc2ncccn2)CC1)c1ccc(F)c(F)c1 [Compound 91] | > 5.00 | > 5.00
40 | O=C(/N=C(/NCc1ccccc1C(F)(F)F)N[C@H]1CC[C@H](Nc2ncccn2)CC1)c1ccc(F)c(F)c1 [Compound 92] | > 5.00 | > 5.00
41 | O=C(/N=C(/NCc1cccc(C(F)(F)F)c1)N[C@H]1CC[C@H](Nc2ncccn2)CC1)c1ccc(F)c(F)c1 [Compound 93] | > 5.00 | > 5.00
42 | O=C(/N=C(/Nc1cccc(C(F)(F)F)c1)N[C@H]1CC[C@H](Nc2ncccn2)CC1)c1ccc(F)c(F)c1 [Compound 94] | > 5.00 | > 5.00
43 | CCOC(=O)N[C@H]1CC[C@H](N/C(=N\C(=O)c2ccc(F)c(F)c2)NC2CCC(F)(F)CC2)CC1 [Compound 95] | > 5.00 | < 5.00
44 | CS(=O)(=O)N[C@H]1CC[C@H](N/C(=N/C(=O)c2ccc(F)c(F)c2)Nc2cc(F)cc(Cl)c2)CC1 [Compound 96] | > 5.00 | > 5.00
45 | CS(=O)(=O)N[C@H]1CC[C@H](N/C(=N/C(=O)c2ccc(F)c(F)c2)Nc2cccc(Cl)c2)CC1 [Compound 97] | < 5.00 | > 5.00
46 | CCOC(=O)N[C@H]1CC[C@H](N/C(=N/C(=O)c2ccc(F)c(F)c2)Nc2ccc(F)cc2C2CC2)CC1 [Compound 98] | > 5.00 | > 5.00
47 | O=C(/N=C(/Nc1cc(F)cc(Cl)c1)N[C@H]1CC[C@@H](C(=O)O)CC1)c1ccc(F)c(F)c1 [Compound 99] | < 5.00 | < 5.00
48 | CC(=O)N[C@H]1CC[C@H](N/C(=N\C(=O)c2ccc(F)c(F)c2)Nc2cc(F)cc(Cl)c2)CC1 [Compound 100] | > 5.00 | > 5.00
49 | O=C(/N=C(/Nc1cc(F)cc(Cl)c1)N[C@H]1CC[C@H](NC(=O)C2CC2)CC1)c1ccc(F)c(F)c1 [Compound 101] | > 5.00 | > 5.00
